Test system: Mice
Experiment: analgesic activity by pressure stimulation method (tail base)
Format: in vivo
Conditions: percent of maximum possible effect, maximum stimulating pressure 100 mmHg; for MPE(%) 1 mg/kg s.c. (%): 1 mg/kg subcutaneous administration (skin in the backs); for MPE(%) 10 mg/kg p.o.(%): 10 mg/kg oral administration
Protocol: The analgesic activities of the peptide derivatives of the present invention were evaluated by pressure stimulation method. Mice were subjected to pressure stimulation at the bases of their tails at a rate of 10 mmHg/second. […] For the experiments, mice that were preliminarily determined to respond to a pressure of 40-50 mmHg were used. The maximum stimulating pressure was 100 mmHg. Analgesic activity was calculated as percent of maximum possible effect (% of MPE) according to the following equation: % of MPE =(Pt - Po)/(Pc - Po)× 100 [formula] wherein Po is the pain reaction threshold before the administration of a drug; Pt is the pain reaction threshold "t" minutes after the administration of the drug; and Pc is the maximum stimulating pressure. The results of analgesic activity obtained from subcutaneous administration (skin in the backs) and oral administration are shown in Table 1.

Structure (SMILES)	MPE(%) 1 mg/kg s.c. (%)	MPE(%) 10 mg/kg p.o.(%)
CN(CCC(=O)O)C(=O)[C@H](CC1CCCCC1)NC(=O)[C@@H](CCCNC(=N)N)NC(=O)[C@H](Cc1ccc(O)cc1)NC(=N)N [Example 27, H2NC(NH)-Tyr-D-Arg-Cha-MeβAla-OH·diacetate]	52.14%	33.15%
CC(=N)NCCC[C@@H](NC(=O)[C@H](Cc1ccc(O)cc1)NC(=N)N)C(=O)N[C@@H](Cc1ccccc1)C(=O)N(C)CCC(=O)O [Example 17, H2NC(NH)-Tyr-(R)-IEPE-Phe-MeβAla-OH·diacetate]	100%	88.34%
CN(CCC(=O)O)C(=O)[C@H](Cc1ccccc1)NC(=O)[C@@H](CCCNC(=N)N)NC(=O)[C@H](Cc1ccc(O)c(O)c1)NC(=N)N [Example 4, H2NC(NH)-DOPA-D-Arg-Phe-MeβAla-OH·diacetate]	70.85%	18.11%
CN(CCC(=O)O)C(=O)[C@H](Cc1ccc(O)cc1)NC(=O)[C@@H](CCCNC(=N)N)NC(=O)[C@H](Cc1ccc(O)cc1)NC(=N)N [Example 25, H2NC(NH)-Tyr-D-Arg-Tyr-MeβAla-OH·diacetate]	22.55%	10.96%
CC(=N)N[C@@H](Cc1ccc(O)cc1)C(=O)N[C@H](CC[S+](C)[O-])C(=O)N[C@@H](Cc1ccccc1)C(=O)N(C)CCC(=O)O (stereo partly drawn) [Example 31, H3C-C(NH)-Tyr-D-AMSB-Phe-MeβAla-OH·acetate]	100%	96.18%
Cc1cc(O)cc(C)c1C[C@H](NC(=N)N)C(=O)N[C@H](CCCNC(=N)N)C(=O)N[C@@H](Cc1ccccc1)C(=O)N(C)CCC(=O)O [Example 2, H2NC(NH)-DMT-D-Arg-Phe-MeβAla-OH·diacetate]	93.47%	22.78%
CN(CCC(=O)O)C(=O)[C@H](CCc1ccccc1)NC(=O)[C@@H](CCCNC(=N)N)NC(=O)[C@H](Cc1ccc(O)cc1)NC(=N)N [Example 26, N-H2NC(NH)-Tyr-D-Arg-APBA-MeβAla-OH·diacetate]	32.83%	14.44%
CC(=N)N[C@@H](Cc1ccc(O)cc1)C(=O)N[C@H](CCCCN)C(=O)N[C@@H](Cc1ccccc1)C(=O)N(C)CCC(=O)O [Example 19, H3C-C(NH)-Tyr-D-Lys-Phe-MeβAla-OH·diacetate]	87.11%	82.29%
CC(=N)NC[C@@H](NC(=O)[C@H](Cc1ccc(O)cc1)NC(=N)N)C(=O)N[C@@H](Cc1ccccc1)C(=O)N(C)CCC(=O)O [Example 32, H2NC(NH)-Tyr-D-IEPR-Phe-MeβAla-OH·diacetate]	66.61%	52.72%
CN(CCC(=O)O)C(=O)[C@H](Cc1ccccc1)NC(=O)[C@@H](CCNC(=N)N)NC(=O)[C@H](Cc1ccc(O)cc1)NC(=N)N [Example 10, H2NC(NH)-Tyr-(R)-AGBA-Phe-MeβAla-OH·diacetate]	42.78%	10.62%
